We go through one compound from US11767303B2, “Compounds and methods for inhibiting viral replication and methods of treating and preventing flaviviral infections” (priority 2020, dated 2023).

For series [1], the system named is ZIKV. As to the kind of experiment: Viral titer reduction assay, ZIKV in A549 cells. The format is cell-based, Zika virus. As to conditions: Zika virus. On the procedure: Viral Titer Reduction Assay. A viral titer reduction assay was used to determine the compounds' effect on DENV2 and ZIKV strains, as described previously. […] Human A549 lung carcinoma cells and human primary neural progenitor cells were used, as described previously. […] All experiments were performed in triplicates.

Series [2] in a line: Pharmacokinetics in B6 mice after oral gavage. Particulars: B6 mice, single oral dose 40 mg/kg, plasma. The text has this:
Pharmacokinetics. […] Fan et al., “Contributions of Hepatic and Intestinal Metabolism to the Disposition of Niclosamide, a Repurposed Drug with Poor Bioavailability,” Drug Metab. Dispos. 47:756-763 (2019), which is hereby incorporated by reference in its entirety. […] Student's t-test was used. P values<0.05 were considered statistically significant.

The test system of series [3] is ZIKV PRVABC59. The series is described as follows: ZIKV viremia mouse model (A129 mice). The format is in vivo. As to conditions: 20 mg/kg/day oral gavage, day 3 post-infection, vs vehicle. On the procedure:
In vivo protection efficacy. All animal studies involving infectious ZIKV were conducted at an Animal Biosafety Level 2 (ABSL-2) facility at the Wadsworth Center with Institutional Biosafety and Animal Welfare Committee approval.
A group of four-week-old A129 mice were infected by subcutaneous injection with 1.7×10^5 PFU of the PRVABC59 strain. […] Mice were observed daily for signs of illness and mortality. Viremia on day 3 post-infection (pi) was determined by plaque forming assay, and statistical analysis was performed using the unpaired, two-tailed t-test (Prism).
Finally, the in vivo antiviral efficacy was evaluated using a viremia mouse model, as described previously. Zhang et al., “Characterization of the Contemporary Zika Virus in Immunocompetent Mice,” Hum. Vaccines Immunother. 12:3107-3109 (2016) and Larocca et al., “Vaccine Protection Against Zika Virus From Brazil,” Nature 536:474-478 (2016), both of which are hereby incorporated by reference in their entirety.

Series [4] deals with ZIKV. The series is described as follows: qRT-PCR of viral RNA from ZIKV-infected A549 cells. The format is cell-based, Zika virus. Here is the method:
Quantitative qRT-PCR. Quantitative qRT-PCR was performed as described previously. Li et al., “Existing Drugs as Broad-Spectrum and Potent Inhibitors for Zika Virus by Targeting NS2B-NS3 Interaction,” Cell Res. 27:1046-1064 (2017); Li et al., “Erythrosin B is a Potent and Broad-Spectrum Orthosteric Inhibitor of the Flavivirus NS2B-NS3 Protease,” Antiviral Res. 150:217-225 (2018), which are hereby incorporated in their entirety. ZIKV primers […] (SEQ ID NO: 12) and […] (SEQ ID NO: 13) with ZIKV probe Cy5-[…]/TAO/[…]-IAbRQSp (SEQ ID NO: 14) were used. The 2-ΔΔCT (“delta-delta Ct”) method was used to quantify samples. All experiments were performed in triplicates.

The test system of series [5] is ZIKV. The series is described as follows: Time of addition experiment. The format is cell-based, Zika virus. Particulars: 0.75 μM added post-infection, titers at 48 hrs. Here is the method:
FIGS. 6A-6C show mechanism of action studies. […] Viral titers were quantified using plaque forming assay 48 hrs post-infection. DMSO was added to control. N=3. ***, p<0.001. […] N=3. […] Right, Band intensities of PP and NS3 normalized to the GAPDH control (N=3). […] Li et al., “Existing Drugs as Broad-Spectrum and Potent Inhibitors for Zika Virus by Targeting NS2B-NS3 Interaction,” Cell Res. 27:1046-1064 (2017), which is hereby incorporated by reference in its entirety. At 48 hrs post-infection, cells were washed, harvested, and protected by protease inhibitor cocktail prior to lysis by SDS-PAGE loading buffer. Upon incubation at 95° C. for 10 min, sample was subjected to Western blot analysis with anti-ZIKV NS3 (GTX133309, GeneTex, Inc.) and anti-GAPDH (CB1001, EMD Millipore) as primary antibodies. Error bars in all panels represent the standard deviations at each condition.
Antiviral inhibitors are generally divided into two categories, entry and post-entry (replication), respectively.

Series [6] in a line: LogP.
Series [7] can be described thus: in vitro. Particulars: not told, Perme. (cell permeability).

SMILES strings stand for the structures. Like-named read-outs stand apart in the source and are kept apart here.

For `O=C(Nc1ccc([N+](=O)[O-])cc1Cl)c1cccc([N+](=O)[O-])c1O` [JMX0207, N-(2-Chloro-4-nitrophenyl)-2-hydroxy-3-nitrobenzamide], the EC50 in series [1] (A549, read-out: EC50-ZK) came out at 300 nM. Also, in series [1] (A549, read-out: EC50-ZK (A549)), the EC50 is 300 nM. Further, in series [2], the “AUC0→∞ ± S.D.” value was 2719 ± 1018 and the “Tmax ± S.D.” value stood at 1.2 ± 0.5 h. For the same compound, in series [2] (40 mg/kg), the “T1/2 ± S.D.” value turned out to be 11 ± 6.8 h. Also, the Cmax in series [2] (read-out: Cmax ± S.D.) came to 145 µM. Moreover, the ZIKV-induced viremia result in series [3] is recorded as “significant reduction in ZIKV-induced viremia”. The “ZIKV RNA copy number” value in series [4] is “significantly reduced the ZIKV RNA copy number in a dose-dependent manner”. In addition, the “reduction of ZIKV titer by time of addition” value in series [5] is on record as “equally effective in reducing ZIKV titer even at 24 hrs post-infection”. In series [6], this compound yielded a logP of 2.72. This compound also displayed a Papp in series [7] of more than 1 ×10⁻⁶ cm/s.

A word on the EC50: it is the midpoint of the concentration-response curve. The Cmax is the maximum level reached in the sampled fluid or tissue. One may read the logP as the decadic logarithm of the partition coefficient of the neutral form, usually between octanol and water. The term Papp denotes the rate of passage across a membrane or cell layer, normalised by area and donor concentration. A high value points to ready permeation.
